# Test results taken from US20090298848A1, “Methods and Compositions for Treating Barth Syndrome, Cardiomyopathy, Mitochondrial Diseases and Other Conditions” (CORTENDO INVEST AB,, priority 2006, published 2009).
# Like-named read-outs stand apart in the source and are kept apart here.
# Columns and labels:
# [1] = in vivo, cited from earlier work
# [2] = cited from earlier work
# [3] = normal volunteers, 200 mg dose of the racemic mixture, oral; cited from earlier work
# corticosterone = assay: Serum corticosterone reduction after oral dosing in rats; assay type: in vivo; settings: 200 mg drug/kg body weight, within 4 hours of oral dosing
# [4] = Toxicology of DIO-902 in dogs, oral dosing for 28 days; settings: oral doses up to 20 mg/kg/day for 28 days
# testosterone = assay: Testosterone suppression after single dose in rats; assay type: in vivo
# hepatic cardiolipin = assay: Measurement of hepatic cardiolipin following 91 days dosing in Beagle dogs; assay type: in vivo; settings: male Beagle dogs, vs placebo
# Procedure: Male Beagle dogs were treated with empty gelatin capsules (Placebo) or gelatin capsules containing sufficient 2S,4R enantiomer of ketoconazole to provide a dose of 20 mg/kg body weight. After 91 days of therapy, the amount of cardiolipin present in the livers of the dogs was determined. The amount of cardiolipin with fatty acids of the different indicated classes was determined independently. SFA, saturated fatty acids; MUFA, […] fatty acids; PUFA, poly-unsaturated fatty acid; n3, fatty acids in which the first double bond is at C3; n6, fatty acids in which the first double bond is at C6; n9, fatty acids in which the first double bond is at C9.
# Male Beagle dogs were treated with empty gelatin capsules (Placebo) or gelatin capsules containing sufficient 2S,4R enantiomer of ketoconazole to provide a dose of 20 mg/kg body weight. After 91 days of therapy, the amount of cardiolipin present in the livers of the dogs was determined. The amount of cardiolipin with fatty acids of the different indicated classes was determined independently. The different classes are arranged according to the proportion that they are found in the placebo treated animals.
# The effect of the 2S,4R enantiomer of ketoconazole enantiomers on cardiolipin levels in Beagle dogs was determined. The dogs were approximately 6-7 months of age at the initiation of the experiment and weighed 8-10 kg. To generate the results shown in FIGS. 1 and 2, eight male beagle dogs were used. Four of these dogs were dosed daily with an empty capsule, and four dogs were dosed with a gelatin capsule containing sufficient 2S,4R enantiomer of ketoconazole for each dog to receive 20 mg/kg body weight of the 2S,4R enantiomer of ketoconazole. The capsules were prepared weekly, placed in a labeled pill bottle and stored at 23° C.±3° C. until dispensed for dosing. […] Lipid content of the livers was determined using a combination of high pressure liquid chromatography (HPLC) and mass spectrometry. […]
# plasma cholesterol = assay: Plasma cholesterol suppression in rats; assay type: in vivo; settings: 200 mg drug/kg body weight
# [5] = Oral pharmacokinetics in dogs
# [6] = patients with Cushing's syndrome
smiles,measurement,setting,value
"CC(=O)N1CCN(c2ccc(OCC3COC(Cn4ccnc4)(c4ccc(Cl)cc4Cl)O3)cc2)CC1 (racemic) [racemic ketoconazole, 1-acetyl-4-[4-[[2-(2,4-dichlorophenyl)-2-[(1H-imidazol-1-yl)-methyl]-1,3-dioxolan-4-yl]methoxy]phenyl]piperazine]","1,25 dihydroxy Vitamin D",[1],reduces
same,hepatotoxicity,[1],associated with hepatotoxicity
same,testosterone,[1],reduces
same,hepatotoxicity,[1]; listed as racemic mixture,can cause hepatoxicity
same,cortisol synthesis,"[2]; human, in vivo",inhibits cortisol synthesis
same,plasma cortisol,"[2]; human, in vivo",decrease plasma cortisol
same,cholesterol levels in humans,[2]; humans (Sonino et al. 1991; Gylling et al. 1993),lower cholesterol levels
same,blood pressure,[2]; [6],reduces
same,cholesterol,[2]; [6],reduces
same,glucose,[2]; [6],reduces
"CC(=O)N1CCN(c2ccc(OC[C@@H]3CO[C@@](Cn4ccnc4)(c4ccc(Cl)cc4Cl)O3)cc2)CC1 (relative stereo) [DIO-902, 2S,4R cis-1-acetyl-4-[4-[[2-(2,4-dichlorophenyl)-2-(1H-imidazol-1-ylmethyl)-1,3-dioxolan-4-yl]methoxyl]phenyl]piperazine]",maximum plasma concentration,[3],approximately 3.6 μg/mL
same,time of maximum plasma concentration,[3],2 h
same,serum corticosterone level,corticosterone,25 % of basal
same,body weight,[4],reduction in body weight
same,cholesterol,[4],trend to a decrease in cholesterol
same,food intake,[4],reduction in food intake
same,other serum chemistry and hematological parameters,[4],no noted changes
same,time for testosterone levels to return to normal,testosterone; 200 mg drug/kg body weight,≤ 8 h
same,time to testosterone suppression after dosing,testosterone; 200 mg drug/kg body weight,within four hours
same,testosterone level,testosterone; single dose 200 mg drug/kg body weight,10 % of basal
same,amount of cardiolipin in the livers as a function of the liver wet weight,hepatic cardiolipin; 20 mg/kg body weight daily in gelatin capsule,increased cardiolipin levels
same,"hepatic cardiolipin by fatty acid carbon chain length and bond number, FIG. 2",hepatic cardiolipin; 20 mg/kg,able to increase the levels of cardiolipin that contain fatty acids of a wide variety of carbon chain length with different numbers of carbon bonds
same,"hepatic cardiolipin by fatty acid class (SFA, MUFA, PUFA, n3, n6, n9), FIG. 1",hepatic cardiolipin; 20 mg/kg,able to increase the levels of cardiolipin that contain both saturated and unsaturated fatty acids
same,plasma cholesterol,plasma cholesterol,suppresses plasma cholesterol
same,oral availability,[5],orally available
